In assay [1] the target is T1, combination of ASIC1 and ASIC2 (Homo sapiens, UniProt P78348+Q16515).
T1 construct: expressed in transfected cells; host or cells: Xenopus oocytes (cRNA injection)
Kind of assay: Acid-activated currents in voltage-clamped Xenopus oocytes expressing ASIC1 and ASIC2. It is filed as cell-based. The conditions noted are these: 400 μM amiloride; pHo 4.0; −60 mV.
Description: FIGS. 8A-C show acid-activated ASIC currents in Xenopus oocytes. ASIC 2 (FIG. 8A), ASIC1 (FIG. 8B) and the combination of ASIC2 and ASIC1 (FIG. 8C) were examined. […] Each oocyte served as its own control.
(§1) Membrane potential was held at −60 mV, and the pHo was step decreased to 4.0 for 10 s, and then returned to 7.4 for 30 s before repeating the sequence.
Xenopus oocytes were used to express ASIC1 and ASIC2 mRNA individually and in combination. Oocyte preparation, cRNA injection, and two-electrode voltage clamp recordings were performed as described (33,67-69).
as §1

Assay [2] concerns U87-MG cells. The experiment in a line: Cell growth in culture. In kind it is cell-based, human. The following applies: 80 nM PcTX1.
In assay [3] the test system is U87-MG cells. Kind of assay: Transwell Migration Assay, U87-MG cells. In kind it is cell-based, human. The conditions noted are these: 3 h, vitronectin.
A further assay has as its target T2, ASIC2 (Homo sapiens, UniProt Q16515).
T2 sequence (Q16515 1-512): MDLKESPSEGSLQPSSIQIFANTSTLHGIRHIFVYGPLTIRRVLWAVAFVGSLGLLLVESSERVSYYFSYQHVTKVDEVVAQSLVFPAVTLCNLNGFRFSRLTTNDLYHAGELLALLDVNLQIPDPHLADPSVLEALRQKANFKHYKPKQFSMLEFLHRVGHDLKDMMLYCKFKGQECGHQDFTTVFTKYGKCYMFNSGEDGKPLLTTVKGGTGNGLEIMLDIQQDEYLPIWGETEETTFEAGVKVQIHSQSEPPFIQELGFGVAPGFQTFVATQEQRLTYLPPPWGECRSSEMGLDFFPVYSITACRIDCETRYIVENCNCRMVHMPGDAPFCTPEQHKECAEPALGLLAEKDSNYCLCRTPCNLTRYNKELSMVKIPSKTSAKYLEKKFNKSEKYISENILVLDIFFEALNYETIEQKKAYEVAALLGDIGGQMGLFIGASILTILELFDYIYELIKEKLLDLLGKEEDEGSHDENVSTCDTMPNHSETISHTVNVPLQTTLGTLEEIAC
Kind of assay: ASIC2 in planar lipid bilayers. In kind it is biochemical.
Description: as §1

The subject of a further assay is D54-MG glioma cells. The experiment in a line: Transwell Migration Assay, D54-MG cells. It is filed as cell-based, human. The conditions noted are these: 3 h, vitronectin. The protocol: 5-8 μm polycarbonate Transwell filters were coated on the lower surface with or vitronectin ([…] in PBS). […] of D54MG cells (400,000 cells/ml were added to the upper chamber), in the presence or absence of benzamil, and migration was allowed to proceed for 3 hours. Migration was determined according to standard procedures (120). N-amidino-3,5-diamino-pyrazinecarboxamide was used as a control.
To begin to investigate the role of the inward Na^+ conductance in the invasive behavior of tumor cells, a Transwell Migration Assay was used to assess cell chemotaxis and invasiveness (FIG. 17). D54-MG cells were plated on the upper side of a filter insert perforated with 5-8 μm holes, and induced to migrate through these pores toward the extracellular matrix protein vitronectin (coated on the underside of the filter). Benzamil, at 10, 20, 50, or 100 μM, was added to both chambers at time 0. After a 3 h migration time, cells were fixed, stained with crystal violet, and counted. BSA-coated filter inserts were used as negative controls. […]
Approximately 10,000 cells were added to the upper side of a filter insert perforated with 5-8 μm holes, and induced to migrate through these pores toward the extracellular matrix protein vitronectin (coated on the underside of the filter). […] Cells were counted on an inverted microscope, averaging five fields per Transwell chamber. […]

For assay [4], the system named is U87-MG cells. Kind of assay: Regulatory volume increase after osmotic shrinkage, Coulter counter. In kind it is cell-based, human. The conditions noted are these: 80 nM PcTX1; 450 mOsM/kg. The protocol:
U87-MG cells were mechanically dispersed, washed, and resuspended in PBS. At t=2-3 min, the osmolality of the bathing medium was increased to 450 mOsM/kg by the addition of NaCl from a 3M stock solution.

T1 sequence (P78348 whole entry, one chain of several): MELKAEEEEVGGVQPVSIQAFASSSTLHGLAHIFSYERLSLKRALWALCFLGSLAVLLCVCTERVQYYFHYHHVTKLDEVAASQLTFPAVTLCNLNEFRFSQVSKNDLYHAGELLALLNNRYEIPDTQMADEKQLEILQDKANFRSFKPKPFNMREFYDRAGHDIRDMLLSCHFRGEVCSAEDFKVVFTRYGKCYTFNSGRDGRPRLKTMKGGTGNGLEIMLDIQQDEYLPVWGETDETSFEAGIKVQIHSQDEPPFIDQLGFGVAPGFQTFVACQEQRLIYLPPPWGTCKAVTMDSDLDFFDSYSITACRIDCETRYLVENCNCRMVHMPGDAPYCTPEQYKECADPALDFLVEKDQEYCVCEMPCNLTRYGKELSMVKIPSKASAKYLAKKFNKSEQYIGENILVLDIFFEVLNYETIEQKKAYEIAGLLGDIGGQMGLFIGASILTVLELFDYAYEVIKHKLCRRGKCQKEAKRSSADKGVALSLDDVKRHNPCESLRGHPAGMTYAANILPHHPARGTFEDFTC

For `N=C(N)NC(=O)c1nc(Cl)c(N)nc1N` [amiloride], the “inhibition of acid-activated currents” value in assay [1] was “inhibited”.

As to Psalmotoxin 1 [PcTX1], in the assay with U87-MG cells [2], the “growth of cells in culture” value is reported as “significantly inhibited”. Besides, the “diminished ability to migrate through the filter” value with U87-MG cells [3] and in the assay on D54-MG glioma cells was greater than 90% in each case. The “block of inward currents” value with ASIC2 was “not ASIC2”. Further, the “volume recovery after shrinkage” value with U87-MG cells [4] is reported as “effectively prevented”.

The values are drawn from patent US20070092444A1, “Inhibition of inward sodium currents in cancer” (priority 2003, published 2007).
